In the supplement of paper PMC10307832:

Key:
Assay in all cases: relative viability (nuclei count vs DMSO), 5 days (fraction); higher = more cells survive
BEN = system: BEN
Method in brief: (§1)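 Cells from lung cancer lines were seeded into 1536-well plates and, one day later, dosed by pin tool. Treatments were either a single drug or a fixed dose of an anchor drug with five library-drug doses (not always all listed) in √10 steps. After 5 days, nuclei were stained in a one-step fixation (final 0.05% Triton X-100, 1% formaldehyde, 1 ug/ml Hoechst) and counted on 4× images, and relative viability is the treated-to-vehicle nuclei ratio, as the median of duplicate plates.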

ChaGo-K-1 = system: ChaGo-K-1
Method in brief: as §1

EKVX = system: EKVX
Method in brief: as §1

HCC-827 = system: HCC-827
Method in brief: as §1

HOP-62 = system: HOP-62
Method in brief: as §1

LCLC-103H = system: LCLC-103H
Method in brief: as §1

LK-2 = system: LK-2
Method in brief: as §1

LOU-NH91 = system: LOU-NH91
Method in brief: as §1

LXF-289 = system: LXF-289
Method in brief: as §1

NCI-H1355 = system: NCI-H1355
Method in brief: as §1

NCI-H1437 = system: NCI-H1437
Method in brief: as §1

NCI-H1666 = system: NCI-H1666
Method in brief: as §1

NCI-H1944 = system: NCI-H1944
Method in brief: as §1

NCI-H1993 = system: NCI-H1993
Method in brief: as §1

NCI-H2126 = system: NCI-H2126
Method in brief: as §1

NCI-H2170 = system: NCI-H2170
Method in brief: as §1

NCI-H441 = system: NCI-H441
Method in brief: as §1

NCI-H647 = system: NCI-H647
Method in brief: as §1

NCI-H727 = system: NCI-H727
Method in brief: as §1

PC-14 = system: PC-14
Method in brief: as §1

RERF-LC-KJ = system: RERF-LC-KJ
Method in brief: as §1

## Cc1cn(-c2cc(NC(=O)c3ccc(C)c(Nc4nccc(-c5cccnc5)n4)c3)cc(C(F)(F)F)c2)cn1 [Nilotinib] + NC(=O)Nc1cc(-c2cccc(F)c2)sc1C(=O)N[C@H]1CCCNC1 [AZD7762] (partner 0.2 µM)
BEN; first compound 0.001 µM
  relative viability: 0.76
BEN; first compound 0.003162 µM
  relative viability: 0.649
BEN; first compound 0.01 µM
  relative viability: 0.589
BEN; first compound 0.03162 µM
  relative viability: 0.6
BEN; first compound 0.1 µM
  relative viability: 0.53
ChaGo-K-1; first compound 0.001 µM
  relative viability: 0.884
ChaGo-K-1; first compound 0.003162 µM
  relative viability: 0.975
ChaGo-K-1; first compound 0.01 µM
  relative viability: 0.853
ChaGo-K-1; first compound 0.03162 µM
  relative viability: 0.638
ChaGo-K-1; first compound 0.1 µM
  relative viability: 0.344
EKVX; first compound 0.001 µM
  relative viability: 0.599
EKVX; first compound 0.003162 µM
  relative viability: 0.654
EKVX; first compound 0.01 µM
  relative viability: 0.729
EKVX; first compound 0.03162 µM
  relative viability: 0.688
EKVX; first compound 0.1 µM
  relative viability: 0.555
HCC-827; first compound 0.001 µM
  relative viability: 0.172
HCC-827; first compound 0.003162 µM
  relative viability: 0.158
HCC-827; first compound 0.03162 µM
  relative viability: 0.177
HCC-827; first compound 0.1 µM
  relative viability: 0.204
HOP-62; first compound 0.001 µM
  relative viability: 0.57
HOP-62; first compound 0.003162 µM
  relative viability: 0.549
HOP-62; first compound 0.01 µM
  relative viability: 0.595
HOP-62; first compound 0.03162 µM
  relative viability: 0.271
LCLC-103H; first compound 0.001 µM
  relative viability: 0.861
LCLC-103H; first compound 0.003162 µM
  relative viability: 0.883
LCLC-103H; first compound 0.01 µM
  relative viability: 0.845
LCLC-103H; first compound 0.03162 µM
  relative viability: 0.705
LCLC-103H; first compound 0.1 µM
  relative viability: 0.477
LK-2; first compound 0.001 µM
  relative viability: 0.349
LK-2; first compound 0.003162 µM
  relative viability: 0.447
LK-2; first compound 0.01 µM
  relative viability: 0.47
LK-2; first compound 0.03162 µM
  relative viability: 0.382
LK-2; first compound 0.1 µM
  relative viability: 0.514
LOU-NH91; first compound 0.001 µM
  relative viability: 0.748
LOU-NH91; first compound 0.003162 µM
  relative viability: 0.742
LOU-NH91; first compound 0.01 µM
  relative viability: 0.772
LOU-NH91; first compound 0.03162 µM
  relative viability: 0.65
LOU-NH91; first compound 0.1 µM
  relative viability: 0.684
LXF-289; first compound 0.001 µM
  relative viability: 1.03
LXF-289; first compound 0.003162 µM
  relative viability: 1.2
LXF-289; first compound 0.01 µM
  relative viability: 1.21
LXF-289; first compound 0.03162 µM
  relative viability: 1.08
LXF-289; first compound 0.1 µM
  relative viability: 0.642
NCI-H1355; first compound 0.001 µM
  relative viability: 0.718
NCI-H1355; first compound 0.003162 µM
  relative viability: 0.782
NCI-H1355; first compound 0.01 µM
  relative viability: 0.801
NCI-H1355; first compound 0.03162 µM
  relative viability: 0.439
NCI-H1355; first compound 0.1 µM
  relative viability: 0.583
NCI-H1437; first compound 0.001 µM
  relative viability: 1.16
NCI-H1437; first compound 0.003162 µM
  relative viability: 0.888
NCI-H1437; first compound 0.01 µM
  relative viability: 1.12
NCI-H1437; first compound 0.03162 µM
  relative viability: 0.899
NCI-H1437; first compound 0.1 µM
  relative viability: 1.1
NCI-H1666; first compound 0.001 µM
  relative viability: 0.78
NCI-H1666; first compound 0.01 µM
  relative viability: 0.855
NCI-H1666; first compound 0.03162 µM
  relative viability: 0.74
NCI-H1666; first compound 0.1 µM
  relative viability: 0.724
NCI-H1944; first compound 0.001 µM
  relative viability: 0.436
NCI-H1944; first compound 0.003162 µM
  relative viability: 0.75
NCI-H1944; first compound 0.01 µM
  relative viability: 0.41
NCI-H1944; first compound 0.03162 µM
  relative viability: 0.285
NCI-H1944; first compound 0.1 µM
  relative viability: 0.299
NCI-H1993; first compound 0.001 µM
  relative viability: 0.875
NCI-H1993; first compound 0.003162 µM
  relative viability: 0.803
NCI-H1993; first compound 0.01 µM
  relative viability: 0.819
NCI-H1993; first compound 0.03162 µM
  relative viability: 0.754
NCI-H1993; first compound 0.1 µM
  relative viability: 0.559
NCI-H2126; first compound 0.001 µM
  relative viability: 0.965
NCI-H2126; first compound 0.003162 µM
  relative viability: 1.14
NCI-H2126; first compound 0.01 µM
  relative viability: 1.06
NCI-H2126; first compound 0.03162 µM
  relative viability: 0.962
NCI-H2126; first compound 0.1 µM
  relative viability: 0.606
NCI-H2170; first compound 0.001 µM
  relative viability: 0.744
NCI-H2170; first compound 0.003162 µM
  relative viability: 1.32
NCI-H2170; first compound 0.01 µM
  relative viability: 0.856
NCI-H2170; first compound 0.03162 µM
  relative viability: 0.602
NCI-H2170; first compound 0.1 µM
  relative viability: 0.758
NCI-H441; first compound 0.001 µM
  relative viability: 1.08
NCI-H441; first compound 0.003162 µM
  relative viability: 1.21
NCI-H441; first compound 0.01 µM
  relative viability: 1.19
NCI-H441; first compound 0.03162 µM
  relative viability: 0.714
NCI-H441; first compound 0.1 µM
  relative viability: 0.565
NCI-H647; first compound 0.001 µM
  relative viability: 0.477
NCI-H647; first compound 0.003162 µM
  relative viability: 0.41
NCI-H647; first compound 0.01 µM
  relative viability: 0.359
NCI-H647; first compound 0.03162 µM
  relative viability: 0.285
NCI-H647; first compound 0.1 µM
  relative viability: 0.341
NCI-H727; first compound 0.001 µM
  relative viability: 0.574
NCI-H727; first compound 0.003162 µM
  relative viability: 0.528
NCI-H727; first compound 0.01 µM
  relative viability: 0.456
NCI-H727; first compound 0.03162 µM
  relative viability: 0.573
NCI-H727; first compound 0.1 µM
  relative viability: 0.58
PC-14; first compound 0.001 µM
  relative viability: 0.359
PC-14; first compound 0.003162 µM
  relative viability: 0.285
PC-14; first compound 0.01 µM
  relative viability: 0.399
PC-14; first compound 0.03162 µM
  relative viability: 0.305
RERF-LC-KJ; first compound 0.001 µM
  relative viability: 0.834
RERF-LC-KJ; first compound 0.003162 µM
  relative viability: 1.02
RERF-LC-KJ; first compound 0.01 µM
  relative viability: 1.16
RERF-LC-KJ; first compound 0.03162 µM
  relative viability: 0.598
RERF-LC-KJ; first compound 0.1 µM
  relative viability: 0.427
